Laboratory results from patent US12419862B2, “Use of a cathepsin s inhibitor against the formation of anti-drug antibodies” (Hoffmann-La Roche Inc., priority 2018, dated 2025).
“Also recorded” adds a separate entry of the source.

Experiments:
[1] = system: adalimumab-specific IgG response; assay: ADA against adalimumab in hIgG1 Tg mice, ELISA (Example 1, 28 days); format: in vivo, C57BL/6-Tg (hIgG1,k,l) mice; details: 40 mg/kg/day via food admix from one day before first immunization until day 28, vs vehicle
Description: (§1) For immunogenicity assessment, we used the previously described human IgG1 immune-tolerant mouse model (Bessa, Boeckle et al. Pharm Res 2015, 32(7): 2344-2359). Since this human IgG transgenic mouse is tolerant to a broad range of human IgG1 antibodies (Abs), ADA responses elicited in this system are taken to reflect intrinsic immunogenic attributes of the eliciting Ab compounds also expected to cause ADA in humans.
(§2) 15-week-old mice C57BL/6 wild type and C57BL/6-Tg (hIgG1,k,l) were purchased from Taconic (Denmark) and housed at the animal facilities under a 12 hour (h) light 12 h dark cycle with cycles of air ventilation and free access to water and food. 7×10 μg of CEA-112v or 7×10 μg of Humira (Adalimumab, Abbvie Germany GmbH) were injected respectively at day 0, 4, 7, 11, 14, 18 and 21 subcutaneously in the right flank or the left flank alternatively. The dosage of the cathepsin S inhibitor consumption was 40 mg/kg/day. […]
(§3) Nunc Maxisorp flat-bottom 96 well ELISA plates were coated with 100 μl per well of Humira or CEA-PGLALA (3.42 mg/ml, ID 8037) respectively at 5 μg/mL in NaHCO3100 mM buffer overnight at +4° C. […] 100 μl of substrate P-nitrophenyl phosphate ready to use (Life Technologies Cat no 002212) were added per well and after 10 min incubation at room temperature, the OD at 405 nm was read as an end-point measurement with a Versamax ELISA reader.

[2] = system: CEA-specific IgG response; assay: ADA against CEA-IL2v in hIgG1 Tg mice, ELISA (Example 1, 28 days); format: in vivo, C57BL/6-Tg (hIgG1,k,l) mice; details: 40 mg/kg/day via food admix from one week before first immunization until day 28, vs vehicle
Description: as §1, §2, §3

[3] = system: TCRβ+CD8+ T cells and NK1.1+ NKp46+ NK cells; assay: PD effect of CEA-IL2v in blood, flow cytometry of CD8 T cells and NK cells (Example 5); format: in vivo; details: mice of Example 4; cathepsin S inhibitor 40 mg/kg/day vs vehicle
Procedure: 15-week-old mice C57BL/6-Tg (hIgG1,k,l) and C57BL/6 wild type mixed gender were purchased from Taconic (Denmark) and housed at the animal facilities in room with air-conditioned under a 12 hours light/dark cycle in macrolon boxes with enriched environment and free access to water and food. 7×10 μg of CEA-IL2v (Batch no GLI0144-01) were injected at day 0, 4, 7, 11, 14, 18 and 21 for the primary response, and at day 49, 53, 56 and 60 for the memory response. The CEA-112v injections were done subcutaneously in the right flank or the left flank alternatively. The dosage of (2S,4R)-4-[4-(1-methyl-1H-pyrazol-4-yl)-2-trifluoromethyl-benzenesulfonyl]-1-(1-trifluoromethyl-cyclopropanecarbonyl)-pyrrolidine-2-carboxylic acid (1-cyano-cyclopropyl)-amide consumption was 40 mg/kg/day. […]
From Example 4, 50 μl of lithium heparin whole blood were transferred into a 5 ml polystyrene round-bottom tubes (BD Falcon, Cat. no 352058) and 2 ml of freshly prepared 1× Pharm Lyse™ lysing buffer (BD Bioscience, Cat. no 555899) with UltraPur™ distilled water (Invitrogen, Cat. no 10977-035) were added. […] Data were acquired with the BD FACSDiva software v8.0 on BD LSRFortessa™ cytometer and analyzed with FlowJo™ V10.

Question: For `Cn1cc(-c2ccc(S(=O)(=O)[C@@H]3C[C@@H](C(=O)NC4(C#N)CC4)N(C(=O)C4(C(F)(F)F)CC4)C3)c(C(F)(F)F)c2)cn1` [cathepsin S inhibitor, (2S,4R)-4-[4-(1-methyl-1H-pyrazol-4-yl)-2-trifluoromethyl-benzenesulfonyl]-1-(1-trifluoromethyl-cyclopropanecarbonyl)-pyrrolidine-2-carboxylic acid (1-cyano-cyclopropyl)-amide], which “ADA to adalimumab (adalimumab-specific IgG)” value [1] is on record?
Answer: reduces ADA to adalimumab; also recorded: reduced ADA levels compared to vehicle treated animals

Question: What about the “ADA to CEA-IL2v (CEA-specific IgG)” value [2] of the same compound?
Answer: prevents ADA to CEA-IL2v in hIgG transgenic mice; also recorded: complete abrogation of ADA to CEA-IL2v

Question: What about the “Effect on CEA-IL2v pharmacology (percentages of CD8 T cells and NK cells in blood)” value [3] of the same compound?
Answer: CEA-112v pharmacology is preserved
